Some test systems named below: OVCAR-8; NCI/ADR-RES; HOP-62; CAKI-1; RXF 393; SF-295; K562; ACHN; UACC-62; NCI-H23; HCT-15; OVCAR-3; HCT-116; OVCAR-4; SR; COLO 205; A549; NCI-H460; SK-OV-3; BT-549.
Common to all, as to assay: NCI-60 cell line screen, 48 h

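Tested at 5 concentrations; 48 h exposure; 96-well plates; endpoints linearly interpolated, else capped at highest concentration. GI50: concentration for 50% inhibition of growth.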 Calls of active or inactive are those of the source. Cut-off read from the data, not from the text of the source: active = GI50 up to about 1.1 µM and inactive = higher.

Take `[N-]=[N+]=Nc1c([N+](=O)[O-])c(=O)n(-c2ccccc2)c2ccccc12`: the GI50 in the experiment with OVCAR-8 was 20.1 µM (inactive); with NCI/ADR-RES, 20.7 µM (inactive); in the experiment on HOP-62, 43.7 µM (inactive); with CAKI-1, 21.5 µM (inactive); with RXF 393, 20 µM (inactive); with SF-295 it was 27.9 µM (inactive). Moreover, the GI50 in the experiment with K562 was 22.5 µM (inactive); in the experiment on ACHN, 21.7 µM (inactive); in the experiment on UACC-62, 14.3 µM (inactive); in the experiment with NCI-H23, 22 µM (inactive); with HCT-15, 21.9 µM; in the experiment with OVCAR-3 it was 4.5 µM (inactive). Moreover, the GI50 was 20.3 µM (inactive) in the experiment on HCT-116; 18.3 µM (inactive) in the experiment with OVCAR-4; 25.2 µM (inactive) in the experiment with SR; 21.1 µM (inactive) in the experiment on COLO 205; 38.7 µM (inactive) in the experiment on A549; 30.6 µM (inactive) in the experiment on NCI-H460. Further, the GI50 in the experiment with SK-OV-3 is 57.9 µM (inactive).

`C=CCNC(=S)NC=C(C(N)=O)C(N)=O`: the GI50 in the experiment with OVCAR-8, with NCI/ADR-RES, in the experiment with HOP-62, in the experiment with CAKI-1, in the experiment on RXF 393 and with SF-295 was > 100 µM (inactive) in each case. For the same molecule, the GI50 was > 100 µM (inactive) in the experiment with K562; > 100 µM (inactive) with ACHN; > 100 µM (inactive) in the experiment on UACC-62; > 100 µM (inactive) in the experiment on NCI-H23; over 100 µM in the experiment with HCT-15; 11.1 µM (inactive) with OVCAR-3. In addition, the GI50 with HCT-116, in the experiment with OVCAR-4, in the experiment with SR, in the experiment on COLO 205, in the experiment with A549 and with NCI-H460 was > 100 µM (inactive) each time. Further, the GI50 in the experiment with SK-OV-3 is > 100 µM (inactive).

Consider `O=C(COc1ccc(OCC(=O)N2C(=O)CC(=O)N(c3ccccc3)C2=S)cc1)N1C(=O)CC(=O)N(c2ccccc2)C1=S`, for which the GI50 in the experiment on BT-549 was 78.7 µM (inactive); in the experiment on NCI/ADR-RES, > 100 µM (inactive); in the experiment with CAKI-1 it was 0.851 µM (active); with RXF 393 it was 25.5 µM (inactive); in the experiment with SF-295, 56.6 µM (inactive); in the experiment on K562, 52.1 µM (inactive). The GI50 in the experiment on ACHN was 66.7 µM (inactive); in the experiment on UACC-62, 32.2 µM (inactive); with NCI-H23, 64.4 µM (inactive); with HCT-15, 88.5 µM; in the experiment with HCT-116, 22.5 µM (inactive); with OVCAR-4 it was 44.4 µM (inactive). Further, the GI50 in the experiment with COLO 205 was 61.2 µM (inactive); in the experiment on A549 it was 40.4 µM (inactive); with NCI-H460 it was 40.9 µM (inactive); in the experiment with SK-OV-3, 77.4 µM (inactive).

For `CCOCCOC(=O)C1CCC(=O)N1CN(C(C)=O)c1cc(OC)ccc1OC` (stereo unspecified), the GI50 in the experiment with OVCAR-8, in the experiment with NCI/ADR-RES, in the experiment on HOP-62, with CAKI-1, with RXF 393 and in the experiment on SF-295 was > 100 µM (inactive) each time. In addition, the GI50 in the experiment with K562 was > 100 µM (inactive); in the experiment on ACHN, > 100 µM (inactive); in the experiment on UACC-62 it was > 100 µM (inactive); with NCI-H23, > 100 µM (inactive); in the experiment on HCT-15, over 100 µM; in the experiment on OVCAR-3, > 100 µM (inactive). The GI50 with HCT-116 is > 100 µM (inactive); in the experiment with OVCAR-4, > 100 µM (inactive); in the experiment with SR, 1 µM (active); with COLO 205 it was > 100 µM (inactive); in the experiment with A549, > 100 µM (inactive); in the experiment on NCI-H460, > 100 µM (inactive). The GI50 in the experiment on SK-OV-3 was > 100 µM (inactive).

For the molecule `CCOC(=O)Nc1nn(C)/c(=N/Cc2ccccc2)s1`, the GI50 with BT-549 was 85.1 µM (inactive); in the experiment with HOP-62 it was > 100 µM (inactive); with CAKI-1 it was > 100 µM (inactive); in the experiment with RXF 393, > 100 µM (inactive); in the experiment with SF-295 it was > 100 µM (inactive); with K562, > 100 µM (inactive). Moreover, the GI50 in the experiment with ACHN was > 100 µM (inactive); in the experiment with UACC-62, > 100 µM (inactive); in the experiment with HCT-15, over 100 µM; in the experiment on OVCAR-3, > 100 µM (inactive); with HCT-116 it was > 100 µM (inactive); in the experiment on OVCAR-4, > 100 µM (inactive). Also, the GI50 with SR, in the experiment on COLO 205, with A549, with NCI-H460 and with SK-OV-3 was > 100 µM (inactive) in each case.

Consider `C=Cc1ccccc1C1(O)C=CC(OC)(OC)C=C1`, for which the GI50 in the experiment with OVCAR-8 was 2.06 µM (inactive); in the experiment on NCI/ADR-RES it was 4.81 µM (inactive); in the experiment on HOP-62, 6.31 µM (inactive); with CAKI-1, 5.68 µM (inactive); in the experiment with RXF 393, 4.97 µM (inactive); with SF-295, 17.8 µM (inactive). Moreover, the GI50 in the experiment with K562 was 7.6 µM (inactive); in the experiment with ACHN, 12.4 µM (inactive); with UACC-62, 4.51 µM (inactive); in the experiment with NCI-H23, 4.46 µM (inactive); in the experiment with HCT-15, 3.53 µM; with OVCAR-3, 3.05 µM (inactive). Moreover, the GI50 with HCT-116 is 3.4 µM (inactive); in the experiment with OVCAR-4 it was 17.8 µM (inactive); in the experiment on SR it was 2.65 µM (inactive); with COLO 205, 10.8 µM (inactive); in the experiment on A549, 17.3 µM (inactive); in the experiment with NCI-H460 it was 8.57 µM (inactive). Further, the GI50 with SK-OV-3 is 13.9 µM (inactive).

`O=c1/c(=C/c2ccc(-c3ccc(Cl)cc3Cl)o2)sc2n1[C@@H](c1ccc(Cl)cc1)C=C(c1cc(F)c(Cl)cc1Cl)N=2`: the GI50 in the experiment on OVCAR-8 is 45.7 µM (inactive); in the experiment on BT-549, 45.8 µM (inactive); with NCI/ADR-RES, 50.8 µM (inactive); with HOP-62, 10.6 µM (inactive); with CAKI-1, > 100 µM (inactive); in the experiment on RXF 393 it was 31.2 µM (inactive). Besides, the GI50 in the experiment with SF-295 is 53.2 µM (inactive); in the experiment with K562 it was 38.8 µM (inactive); with ACHN, > 100 µM (inactive); in the experiment on UACC-62 it was 25 µM (inactive); with NCI-H23 it was 36.6 µM (inactive); in the experiment with HCT-15, 35.6 µM. Moreover, the GI50 is 37.9 µM (inactive) with HCT-116; 41.9 µM (inactive) in the experiment with OVCAR-4; 78.5 µM (inactive) in the experiment on COLO 205; > 100 µM (inactive) with A549; 60.3 µM (inactive) in the experiment on NCI-H460; 19.2 µM (inactive) in the experiment on SK-OV-3.

In the case of `COc1cccc2c1C(=O)c1c(O)c3c(c(O)c1C2=O)C[C@@](O)(C(C)=O)C[C@@H]3OC1OC(C)C(O)C(N)C1Br` (stereo partly specified), the GI50 was 0.0557 µM (active) in the experiment on OVCAR-8; 0.269 µM (active) in the experiment on BT-549; 0.0147 µM (active) with HOP-62; 0.0139 µM (active) in the experiment on CAKI-1; 0.213 µM (active) with RXF 393; 0.0442 µM (active) with SF-295. Also, the GI50 is 0.0495 µM (active) in the experiment with K562; 0.0213 µM (active) in the experiment on ACHN; 0.105 µM (active) in the experiment with UACC-62; 0.027 µM (active) in the experiment with NCI-H23; 0.132 µM in the experiment with HCT-15; 0.136 µM (active) in the experiment with OVCAR-3. Also, the GI50 was 0.00792 µM (active) in the experiment with HCT-116; 0.185 µM (active) in the experiment with OVCAR-4; 0.00497 µM (active) in the experiment with SR; 0.418 µM (active) with COLO 205; 0.0202 µM (active) with A549; 0.001 µM (active) in the experiment with NCI-H460. In the experiment with SK-OV-3, the GI50 was 0.045 µM (active).

For the molecule `O=C1C=C2CC[C@H]3[C@@H]4CC[C@H](Oc5c6ccccc6nc6ccccc56)[C@H]4CC[C@@H]3[C@H]2CC1`, the GI50 in the experiment with OVCAR-8 was 22.9 µM (inactive); in the experiment on BT-549, 20.3 µM (inactive); in the experiment with NCI/ADR-RES, 20.4 µM (inactive); with HOP-62, 57.1 µM (inactive); in the experiment on CAKI-1 it was 36.7 µM (inactive); with RXF 393, 26.2 µM (inactive). Also, the GI50 with SF-295 is 52.4 µM (inactive); in the experiment with K562, 32.7 µM (inactive); with ACHN, 48.4 µM (inactive); in the experiment on UACC-62 it was 16.7 µM (inactive); in the experiment on NCI-H23, 27.6 µM (inactive); in the experiment on HCT-15, 24.7 µM. In addition, the GI50 in the experiment on OVCAR-3 was 42.6 µM (inactive); in the experiment with HCT-116, 37.1 µM (inactive); in the experiment with OVCAR-4, 52.7 µM (inactive); in the experiment on COLO 205, 42.5 µM (inactive); in the experiment with A549 it was 54.1 µM (inactive); in the experiment on NCI-H460, 35.6 µM (inactive). Also, the GI50 in the experiment with SK-OV-3 was 60.8 µM (inactive).

Turning to `COC(=O)C(N)CCCC(N)C(=O)NC(C)C(=O)NC(CCC(=O)NCCCNc1ccc([N+](=O)[O-])c2[nH]c3ccccc3c(=O)c12)C(N)=O` (stereo unspecified), the GI50 with OVCAR-8 is 3.37 µM (inactive); with BT-549, 12.7 µM (inactive); in the experiment on NCI/ADR-RES, 6.07 µM (inactive); in the experiment on HOP-62, 7.26 µM (inactive); with CAKI-1 it was 6.64 µM (inactive); with RXF 393, 9.55 µM (inactive). Besides, the GI50 in the experiment on SF-295 is 6.24 µM (inactive); with K562, 6.67 µM (inactive); with ACHN it was 3.68 µM (inactive); in the experiment on UACC-62 it was 2.42 µM (inactive); in the experiment with NCI-H23 it was 5.68 µM (inactive); in the experiment with HCT-15, 3.67 µM. Besides, the GI50 with OVCAR-3 is 10.8 µM (inactive); in the experiment with HCT-116 it was 2.33 µM (inactive); in the experiment with OVCAR-4, 6.15 µM (inactive); in the experiment with COLO 205, 3.85 µM (inactive); with A549 it was 3.13 µM (inactive); in the experiment on NCI-H460 it was 3.59 µM (inactive). For the same molecule, in the experiment on SK-OV-3, the GI50 is 11.4 µM (inactive).

For `CCN(CC)C(=S)SC` [METHYLDIETHYL CARBAMODITHIOATE], the GI50 in the experiment with OVCAR-8, in the experiment with BT-549, in the experiment with NCI/ADR-RES, in the experiment with HOP-62, in the experiment with RXF 393 and in the experiment on SF-295 was > 100 µM (inactive) each time. For the same molecule, the GI50 in the experiment on K562 is > 100 µM (inactive); in the experiment on ACHN it was > 100 µM (inactive); with UACC-62 it was > 100 µM (inactive); with NCI-H23 it was > 100 µM (inactive); in the experiment on HCT-15, over 100 µM; in the experiment with OVCAR-3, > 100 µM (inactive). In addition, the GI50 in the experiment on HCT-116, with COLO 205, in the experiment with A549, with NCI-H460 and in the experiment with SK-OV-3 was > 100 µM (inactive) each time.

(Values after ChEMBL document CHEMBL1201862, “PubChem BioAssay data set” (2004).)
